Source: ChEMBL document CHEMBL1123025, “Acylmorphinans. A novel class of potent analgesic agents” (J Med Chem, 1985)

Legend:
Opioid receptor = Opioid receptor (Rattus norvegicus, UniProt P33533+P34975+P33535); experiment: 50% Inhibition of stereospecific [3H]-naltrexone (10e-9 M) binding towards opiate receptor in rat brain homogenate; format: tissue-based
Mus musculus [1] = experiment: Analgesic activity in mice after subcutaneous administration in tail-flicking assay; activity value ranges from 3.0 - 5.4; format: functional; conditions: sc
Mus musculus [2] = experiment: Analgesic activity in mice after subcutaneous administration in writhing assay; 1.21-3.91; format: functional; conditions: sc
Mus musculus [3] = experiment: Analgesic activity in mice after oral administration in writhing assay; 13.71-42.00; format: functional
Mus musculus [4] = experiment: Analgesic activity in mice after oral administration in writhing assay; 0.70-2.80; format: functional
Mus musculus [5] = experiment: Analgesic activity in mice after oral administration in tail-flicking assay; 7.22-10.25; format: functional
Mus musculus [6] = experiment: Analgesic activity in mice after subcutaneous administration in writhing assay; 0.06-0.22; format: functional; conditions: sc
Mus musculus [7] = organism: Mus musculus; experiment: animal or person; conditions: sc
Description: Analgesic activity in mice after subcutaneous administration in writhing assay; 0.26-0.83

CC(O)c1ccc2c(c1)[C@@]13CCCC[C@H]1[C@@H](C2)N(C)CC3.Cl (some centres not stated)
IC50 (Opioid receptor): 14 nM

CC(=O)c1ccc2c(c1)[C@@]13CCCC[C@H]1[C@@H](C2)N(CC1CC1)CC3.Cl
IC50 (Opioid receptor): 70 nM

CC(=O)c1ccc2c(c1)C[C@@H]1[C@@H]3CCCC[C@]23CCN1C
IC50 (Opioid receptor): 13000 nM

CC(=O)c1ccc2c(c1)[C@@]13CCCC[C@H]1[C@@H](C2)N(C)CC3
IC50 (Opioid receptor): 210 nM
ED50 (Mus musculus [1]): 4 mg/kg

COc1ccc2c3c1O[C@H]1[C@@H](O)C=C[C@H]4[C@@H](C2)N(C)CC[C@@]341.COc1ccc2c3c1O[C@H]1[C@@H](O)C=C[C@H]4[C@@H](C2)N(C)CC[C@@]341.O.O=P(O)(O)O.O=P(O)(O)O [CODEINE PHOSPHATE]
ED50 (Mus musculus [2]): 2.3 mg/kg
ED50 (Mus musculus [3]): 24 mg/kg

CN1CC[C@]23CCCC[C@H]2[C@H]1Cc1ccc(O)cc13 [LEVORPHANOL]
IC50 (Opioid receptor): 0.004 nM
ED50 (Mus musculus [4]): 1.4 mg/kg
ED50 (Mus musculus [5]): 8.5 mg/kg
ED50 (Mus musculus [6]): 0.11 mg/kg

CN1CC[C@]23c4c5ccc(O)c4O[C@H]2[C@@H](O)C=C[C@H]3[C@H]1C5 [MORPHINE]
ED50 (Mus musculus [7]): 0.46 mg/kg
